# Results: patent publication US20100028839A1, “METHODS AND SYSTEMS FOR EVALUATING MEMORY AGENTS” (priority 2008, published 2010)
# Several values for one entry are separate records, joined by “and”; a condition that tells them apart may be missing. Equal entries are not always repeated.
# Tests used:
# aged rats = conditions: treatment of aged rats; cited from earlier work
# aged male macaques [1] = assay: Discrimination Learning - Long Term Retrieval task (DL LTR); type: in vivo; conditions: for RT 1-14 (retention test trials 1 to 14), mean / RT 15-28 (retention test trials 15 to 28), mean / retention test, mean / RT overall / RT trials 1-14 / RT trials 15-28: day 8 post-criterion; for RT overall / RT trials 1-14 / RT trials 15-28: raw data of individual animals; for C value / Days to C: raw data of individual animals (Old-1, -2, -5, -7, -8, -9)
# Method: (§1) The study was conducted using 6 aged male macaques (age approximately 22 years at onset of the study which is equivalent to approximately 66 human years) previously trained to performed certain memory tasks. Assessments of memory performance used the CANTAB system (the Cambridge Neuropsychological Test Automated Battery) and a new task.
# In this task, animals are presented with 2 pairs of stimuli (e.g. 1 pair of shapes and 1 pair of lines) over the course of a daily test session. For each pair of stimuli, one stimulus is arbitrarily designated as the positive stimulus (i.e., touch of that stimulus is rewarded). Each pair of stimuli is presented 14 times during a daily session that consists of 28 trials. The pairs of stimuli (shapes or lines) are presented in a pseudo randomized fashion during each session. Animals have to touch the “positive” shape or line in order to receive a sugar pellet reward accompanied by a pleasant tone. Touching the alternative shape or line results in a negative tone, no sugar pellet and a time out. Animals are tested daily until they reach a performance criterion of 85% correct responses during a daily session. When this criterion is reached, animals receive no further testing for the next 7 days. On day 8 post-criterion, animals are tested again using the same pairs of stimuli that they have seen previously learned in order to assess long term retrieval of the learned discriminations.
# (§2) All drugs were administered orally in marshmallow while the animal was in a specially designed testing cage. Vehicle was marshmallow alone.
# (§3) Treatments were administered sequentially starting with treatment 1. Each treatment (dose of HT-0712 or vehicle) was administered once per day for 4 days before behavioral training began and then continued at 1 treatment (dose of HT-0712 or vehicle) per day, delivered four hours before testing, for the duration of the training period. When each individual animal reached performance criterion of at least 85% correct responses during a daily session, training and dosing ceased for seven days. Then, on post-criterion day 8, animals were tested again on the DL LTR task (retention testing).
# The percent correct responses on the total number of daily trials were recorded as well as the number of days needed to reach the criterion (at least 85% correct responses in a single test session). The percent correct responses on the retention trial was recorded for the entire retention trial session and sub-analyzed for performance differences on trials 1-14 versus trials 15-28.
# Data from vehicle trials were compared to data from drug trials using a one way ANOVA. Post hoc comparisons were made using the Bonferroni t-test.
# aged male macaques [2] = assay: Observation of behavioral or physical side effects during the DL LTR study; type: in vivo; conditions: any dose given (1, 10, 100 mg/kg p.o. daily)
# Method: as §1, §2, §3
# Data from this non-responder were removed from the statistical analysis.
# [3] = 1 mg/kg p.o. daily, excluding NHP old-9 (N=5), mean±s.e.m.
# [4] = 1 mg/kg p.o. daily, including NHP old-9 (N=6)
# [5] = 1 mg/kg p.o. daily, entire study group including NHP old-9 (N=6)
# [6] = 1 mg/kg p.o. daily, excluding non-responder NHP old-9 (N=5), mean±s.e.m.
# [7] = 10 mg/kg p.o. daily, excluding NHP old-9 (N=5), mean±s.e.m.
# [8] = 10 mg/kg p.o. daily, including NHP old-9 (N=6)
# [9] = 10 mg/kg p.o. daily, entire study group including NHP old-9 (N=6)
# [10] = 10 mg/kg p.o. daily, excluding non-responder NHP old-9 (N=5), mean±s.e.m.
# [11] = 100 mg/kg p.o. daily, excluding NHP old-9 (N=5), mean±s.e.m.
# [12] = 100 mg/kg p.o. daily, including NHP old-9 (N=6)
# [13] = 100 mg/kg p.o. daily, entire study group including NHP old-9 (N=6)
# [14] = 100 mg/kg p.o. daily, excluding non-responder NHP old-9 (N=5), mean±s.e.m.
smiles,measurement,setting,value
COc1ccc(C2CNC(=O)C2)cc1OC1CCCC1 (centres unmarked) [rolipram],age-dependent loss of hippocampal-dependent memory and cellular long-term potentiation,aged rats,ameliorates
COc1ccc([C@H]2CNC(=O)[C@H](Cc3cccc(C)c3)C2)cc1OC1CCCC1 [HT-0712],"RT 1-14 (retention test trials 1 to 14), mean",aged male macaques [1]; [3],80.2±6.2 % correct responses and 80.200 % correct responses
same,"RT 15-28 (retention test trials 15 to 28), mean",aged male macaques [1]; [3],91.6±3.4 % correct responses and 91.600 % correct responses
same,"retention test, mean",aged male macaques [1]; [3],85.8±4.6 % correct responses and 85.800 % correct responses
same,"RT 1-14 (retention test trials 1 to 14), mean",aged male macaques [1]; [4],77.500 % correct responses
same,"RT 15-28 (retention test trials 15 to 28), mean",aged male macaques [1]; [4],88.167 % correct responses
same,"retention test, mean",aged male macaques [1]; [4],82.833 % correct responses
same,RT overall,aged male macaques [1]; 1 mg/kg p.o. daily,89.00 % correct responses and 68.00 % correct responses (2×) and 93.00 % correct responses (2×) and 86.00 % correct responses
same,RT trials 1-14,aged male macaques [1]; 1 mg/kg p.o. daily,86.00 % correct responses (2×) and 64.00 % correct responses and 93.00 % correct responses and 79.00 % correct responses and 57.00 % correct responses
same,RT trials 15-28,aged male macaques [1]; 1 mg/kg p.o. daily,93.00 % correct responses (3×) and 71.00 % correct responses and 100.00 % correct responses and 79.00 % correct responses
same,"C value (criterion value reached), mean",aged male macaques [1]; [5],91.000 % correct responses
same,"day to C (days to reach criterion), mean",aged male macaques [1]; [5],12.667 days
same,"C value (criterion value reached), mean",aged male macaques [1]; [6],91.4±1.8 % correct responses and 91.400 % correct responses
same,"day to C (days to reach criterion), mean",aged male macaques [1]; [6],12.0 ± 3.6 days and 12.000 days
same,C value,aged male macaques [1]; 1 mg/kg p.o. daily,96.00 % correct responses and 89.00 % correct responses (2×) and 86.00 % correct responses and 93.00 % correct responses (2×)
same,Days to C,aged male macaques [1]; 1 mg/kg p.o. daily,4 days and 17 days and 15 days and 3 days and 21 days and 16 days
same,"RT 1-14 (retention test trials 1 to 14), mean",aged male macaques [1]; [7],71.4±3.4 % correct and 71.400 % correct
same,"RT 15-28 (retention test trials 15 to 28), mean",aged male macaques [1]; [7],87.2±4.8 % correct and 87.200 % correct
same,"retention test, mean",aged male macaques [1]; [7],79.2±3.5 % correct responses and 79.200 % correct responses
same,"RT 1-14 (retention test trials 1 to 14), mean",aged male macaques [1]; [8],73.833 % correct responses
same,"RT 15-28 (retention test trials 15 to 28), mean",aged male macaques [1]; [8],87.000 % correct responses
same,"retention test, mean",aged male macaques [1]; [8],80.333 % correct responses
same,RT overall,aged male macaques [1]; 10 mg/kg p.o. daily,89.00 % correct responses and 86.00 % correct responses (2×) and 75.00 % correct responses (2×) and 71.00 % correct responses
same,RT trials 1-14,aged male macaques [1]; 10 mg/kg p.o. daily,79.00 % correct responses (2×) and 86.00 % correct responses and 64.00 % correct responses (2×) and 71.00 % correct responses
same,RT trials 15-28,aged male macaques [1]; 10 mg/kg p.o. daily,100.00 % correct responses and 86.00 % correct responses (3×) and 71.00 % correct responses and 93.00 % correct responses
same,"C value (criterion value reached), mean",aged male macaques [1]; [9],89.333 % correct responses
same,"day to C (days to reach criterion), mean",aged male macaques [1]; [9],14.000 days
same,"C value (criterion value reached), mean",aged male macaques [1]; [10],90.0±2.6 % correct responses and 90.000 % correct responses
same,"day to C (days to reach criterion), mean",aged male macaques [1]; [10],11.8 ± 2.3 days and 11.800 days
same,C value,aged male macaques [1]; 10 mg/kg p.o. daily,89.00 % correct responses (2×) and 86.00 % correct responses (3×) and 100.00 % correct responses
same,Days to C,aged male macaques [1]; 10 mg/kg p.o. daily,18 days and 9 days and 5 days and 12 days and 15 days and 25 days
same,"RT 1-14 (retention test trials 1 to 14), mean",aged male macaques [1]; [11],58.4±4.1 % correct and 58.400 % correct
same,"RT 15-28 (retention test trials 15 to 28), mean",aged male macaques [1]; [11],71.4±6.1 % correct and 71.400 % correct
same,"retention test, mean",aged male macaques [1]; [11],65.0±3.5 % correct responses and 65.000 % correct responses
same,"RT 1-14 (retention test trials 1 to 14), mean",aged male macaques [1]; [12],59.333 % correct responses
same,"RT 15-28 (retention test trials 15 to 28), mean",aged male macaques [1]; [12],72.667 % correct responses
same,"retention test, mean",aged male macaques [1]; [12],66.000 % correct responses
same,RT overall,aged male macaques [1]; 100 mg/kg p.o. daily,75.00 % correct responses and 71.00 % correct responses and 57.00 % correct responses (2×) and 68.00 % correct responses (2×)
same,RT trials 1-14,aged male macaques [1]; 100 mg/kg p.o. daily,64.00 % correct responses (2×) and 50.00 % correct responses (2×) and 57.00 % correct responses and 71.00 % correct responses
same,RT trials 15-28,aged male macaques [1]; 100 mg/kg p.o. daily,86.00 % correct responses (2×) and 79.00 % correct responses and 64.00 % correct responses (2×) and 57.00 % correct responses
same,"C value (criterion value reached), mean",aged male macaques [1]; [13],86.333 % correct responses
same,"day to C (days to reach criterion), mean",aged male macaques [1]; [13],10.333 days
same,"C value (criterion value reached), mean",aged male macaques [1]; [14],86.4±0.7 % correct responses and 86.400 % correct responses
same,"day to C (days to reach criterion), mean",aged male macaques [1]; [14],9.0 ± 2.8 days and 9.000 days
same,C value,aged male macaques [1]; 100 mg/kg p.o. daily,85.00 % correct responses and 86.00 % correct responses (4×) and 89.00 % correct responses
same,Days to C,aged male macaques [1]; 100 mg/kg p.o. daily,11 days and 3 days and 10 days and 18 days and 17 days
same,animals with improved memory performance (decrease in the number of days needed to reach criterion),"aged male macaques [1]; 1, 10, 100 mg/kg p.o., six aged macaques",Five of the six
same,days to criterion versus vehicle,"aged male macaques [1]; each dose (1, 10, 100 mg/kg p.o.), Bonferroni t-test, p<0.050, old-9 excluded",significant decrease
same,learning ability and long term memory of normal aged non-human primates,aged male macaques [1]; summary of study,significantly improves
same,behavioral or physical side effects,aged male macaques [2],no noticeable behavioral or physical side effects
